Drawing on patent US20250084058A1, “PHENYLPYRAZOLE COMPOUND AND APPLICATION THEREOF” (priority 2022, published 2025), this text covers mortality for 13 compounds.

Holding throughout (assay type): in vivo
One assay concerns Mythimna separata. The experiment in a line: Activity determination of killing Mythimna separata (Airbrush spray, corn leaf segments). The conditions noted are these: foliar, dose 1.25 mg/L, 3rd instar larvae, 3rd day after administration, read-out: mortality against Mythimna separata. Here is the method:
(§1) The compounds to be tested were dissolved in a mixed solvent of acetone/methanol (1:1) and then diluted to desired concentrations with water containing 0.1% (wt) Tween 80.
(§2) With Mythimna separata and Plutella xylostella as targets, the activity was determined by Airbrush spray method.
Determination method: Corn leaves were cut into leaf segments with the length of 2 cm, the pressure of Airbrush spray treatment is 10 psi (about 0.7 kg/cm^2), and the compounds to be tested were sprayed onto the front and back surfaces of each leaf segment at a liquid amount of 0.5 mL. After drying in the shade, 10 3rd instar larvae were inoculated to each treatment, and each treatment was repeated for 3 times. After the treatment, the larvae were placed in an observation room for culture at 25° C. with relative humidity of 60-70%. On the 3rd day after administration, the number of surviving larvae was investigated, and the mortality was calculated.

In a further assay the test system is Plutella xylostella. The experiment in a line: Activity determination of killing Plutella xylostella (Airbrush spray, cabbage leaf discs). The conditions noted are these: foliar, 3rd day after administration; for mortality at 0.3125 µg/mL: 0.3125 mg/L, read-out: Mortality (%, on 3rd day after administration) 0.3125 mg/L; for mortality at 0.625 µg/mL: 0.625 mg/L, read-out: Mortality (%, on 3rd day after administration) 0.625 mg/L. As for the experimental part:
as §1, §2
Determination method: Cabbage leaves were punched into leaf discs with the diameter of 2 cm by a puncher, the pressure of Airbrush spray treatment is 10 psi (about 0.7 kg/cm^2), and the compounds to be tested were sprayed onto the front and back surfaces of each leaf disc at a liquid amount of 0.5 mL. After drying in the shade, 10 3rd instar larvae were inoculated to each treatment, and each treatment was repeated for 3 times. After the treatment, the larvae were placed in an observation room for culture at 25° C. with relative humidity of 60-70%. On 3rd day after administration, the number of surviving larvae was investigated, and the mortality was calculated.
Some compounds of the present disclosure and control compounds were selected to carry out parallel comparative experiments of the insecticidal activity against Plutella xylostella (on 3rd day after administration), and the determination method was the same as above.

In a further assay the test system is Tetranychus cinnabarinus. The experiment in a line: Greenhouse acaricidal activity on adult acarids of Tetranychus cinnabarinus (spraying of Phaseolus vulgaris seedlings). The conditions noted are these: dose 1.25 mg/L, after 72 h, read-out: mortality against adult acarids of Tetranychus cinnabarinus. Here is the method:
According to the solubility of the compounds to be tested, the compounds to be tested were dissolved in acetone or dimethyl sulfoxide and prepared into 50 mL of solutions to be tested at desired concentrations with a 0.1% Tween 80 solution, where the content of the acetone or dimethyl sulfoxide in the solutions was not higher than 10%.
Two true leaves of Phaseolus vulgaris seedlings were taken, and 30-40 adult acarids of Tetranychus cinnabarinus were inoculated. After the cardinal number was investigated, the whole plants were subjected to spraying treatment with a hand-held sprayer, each treatment was repeated for 3 times, and the plants were placed in a standard observation room after the treatment. The number of surviving acarids was investigated after 72 h, and the mortality was calculated.

The test system of a further assay is Ctenocephalides felis. Briefly: Insecticidal test on Ctenocephalides felis (compound film in culture dish). The conditions noted are these: 1 μg/cm^2; adult Ctenocephalides felis; after 72 h; 25° C.; read-out: insect mortality (Ctenocephalides felis). Here is the method: 4 mg of compounds to be tested were dissolved in 40 mL of acetone to obtain acetone solutions with a concentration of 100 mg/L. Bottom surfaces and side surfaces of culture dishes with an inner diameter of 5.3 cm were coated with 400 μL of the drug solutions, and when the acetone was volatilized, films of the compounds of the present disclosure were prepared on inner walls of the culture dishes. The inner walls of the culture dishes used were 40 cm^2, and a dose of the treatment drugs was 1 μg/cm^2. 10 adult Ctenocephalides felis (males and females were mixed) were placed in the culture dishes, and the culture dishes were covered and then stored in a constant-temperature room at 25° C. The number of dead insects was checked after 72 h, and the insect mortality was calculated. The test was repeated for 3 times. Test results: The insect mortality of compounds 1, 2, 3, 4, 5, 11, 12, 18, 32, 33, 34, 46, 60, 74, 88, 99, 101, 102, 104, 105, 108, 109, 110, 111, 113 and 114 is 70% or above.

Another assay concerns Dermacentor variabilis. The experiment in a line: Insecticidal test on Dermacentor variabilis (compound film in culture dish). Conditions: 1 μg/cm^2, 1st nymphs, after 24 h, 25° C., read-out: insect mortality (Dermacentor variabilis). As for the experimental part: 4 mg of compounds to be tested were dissolved in 40 mL of acetone to obtain acetone solutions with a concentration of 100 mg/L. Bottom surfaces and side surfaces of 2 culture dishes with an inner diameter of 5.3 cm were coated with 400 μL of the drug solutions, and when the acetone was volatilized, films of the compounds of the present disclosure were prepared on inner walls of the culture dishes. The inner walls of the culture dishes used were 40 cm^2, and a dose of the treatment drugs was 1 μg/cm^2. 10 1st nymphs of Dermacentor variabilis (males and females were mixed) were placed in the culture dishes. The 2 culture dishes were combined, sealed with tape at a junction portion to prevent escape of the nymphs, and then stored in a constant-temperature room at 25° C. The number of dead insects was checked after 24 h, and the insect mortality was calculated. The test was repeated for 3 times. Test results: The insect mortality of compounds 1, 2, 3, 4, 5, 11, 12, 18, 32, 33, 34, 46, 60, 74, 88, 99, 101, 102, 104, 105, 108, 109, 110, 111, 113 and 114 is 70% or above.

The mark [1] stands for this setting: dose 1.25 mg/L, 3rd instar larvae, read-out: mortality against Plutella xylostella.
The mark [2] stands for this setting: parallel comparative experiment.
[3] abbreviates: 1.25 mg/L, parallel comparative experiment, read-out: Mortality (%, on 3rd day after administration) 1.25 mg/L.

Like-named read-outs stand apart in the source and are kept apart here. A value given as a limit tells only on which side of the number the result lay.

Turning to `N#CCN(C(=O)c1cc(-c2cnn(-c3c(Cl)cc(C(F)(C(F)(F)F)C(F)(F)F)cc3C(F)(F)F)c2)cnc1Cl)C1CC1` [Compound 60], the mortality at 1.25 µg/mL with Mythimna separata, in the assay with Plutella xylostella (setting [1]) and with Tetranychus cinnabarinus was not below 90% throughout. Besides, the mortality at 1 µg/cm2 with Ctenocephalides felis and with Dermacentor variabilis was not below 70% throughout.
On to `N#CCN(C(=O)c1cc(-c2cnn(-c3c(Cl)cc(C(F)(C(F)(F)F)C(F)(F)F)cc3OC(F)(F)F)c2)cnc1Cl)C1CC1` [Compound 88], for which the mortality at 1.25 µg/mL with Mythimna separata, in the assay on Plutella xylostella (setting [1]) and with Tetranychus cinnabarinus was not below 90% throughout. In addition, the mortality at 1 µg/cm2 in the assay with Ctenocephalides felis and in the assay with Dermacentor variabilis was not below 70% each time.
In the case of `N#CCCN(C(=O)c1cc(-c2cnn(-c3c(Cl)cc(C(F)(C(F)(F)F)C(F)(F)F)cc3Cl)c2)cnc1Cl)C1CC1` [Compound 5], the mortality at 1.25 µg/mL in the assay with Mythimna separata is not below 90%; with Plutella xylostella (setting [3]) it was 100%; in the assay with Plutella xylostella (setting [1]), not below 90%; in the assay with Tetranychus cinnabarinus it was not below 90%. In addition, the mortality at 0.3125 µg/mL in the assay with Plutella xylostella (setting [2]) came to 100%. For the same compound, the mortality at 0.625 µg/mL in the assay with Plutella xylostella (setting [2]) was found to be 100%. Besides, the mortality at 1 µg/cm2 in the assay with Ctenocephalides felis and in the assay on Dermacentor variabilis was not below 70% each time.
For the compound `COCC(=O)N(C(=O)c1cc(-c2cnn(-c3c(Cl)cc(C(F)(C(F)(F)F)C(F)(F)F)cc3Cl)c2)cnc1Cl)C1(C#N)CC1` [Compound 114], the mortality at 1.25 µg/mL in the assay with Mythimna separata is not below 90%; in the assay with Plutella xylostella (setting [3]), 100%; in the assay with Plutella xylostella (setting [1]), not below 90%; in the assay on Tetranychus cinnabarinus it was not below 90%. In the assay on Plutella xylostella (setting [2]), the mortality at 0.3125 µg/mL turned out to be 100%. In addition, the mortality at 0.625 µg/mL in the assay with Plutella xylostella (setting [2]) was 100%. The mortality at 1 µg/cm2 with Ctenocephalides felis and in the assay on Dermacentor variabilis was not below 70% each time.
In the case of `CCCC(=O)N(C(=O)c1cc(-c2cnn(-c3c(Cl)cc(C(F)(C(F)(F)F)C(F)(F)F)cc3Cl)c2)cnc1Cl)C1CC1` [Compound 101], the mortality at 1.25 µg/mL with Mythimna separata, in the assay on Plutella xylostella (setting [1]) and in the assay with Tetranychus cinnabarinus was not below 90% each time. In addition, the mortality at 1 µg/cm2 in the assay on Ctenocephalides felis and in the assay on Dermacentor variabilis was not below 70% each time.
As to `COCC(=O)N(C(=O)c1cc(-c2cnn(-c3c(Cl)cc(C(F)(C(F)(F)F)C(F)(F)F)cc3Cl)c2)cnc1Cl)C1CC1` [Compound 105], the mortality at 1.25 µg/mL with Mythimna separata is not below 90%; in the assay with Plutella xylostella (setting [3]), 100%; in the assay on Plutella xylostella (setting [1]) it was not below 90%; with Tetranychus cinnabarinus it was not below 90%. The mortality at 0.3125 µg/mL in the assay with Plutella xylostella (setting [2]) was found to be 100%. Also, the mortality at 0.625 µg/mL in the assay on Plutella xylostella (setting [2]) was determined as 100%. Further, the mortality at 1 µg/cm2 with Ctenocephalides felis and with Dermacentor variabilis was not below 70% each time.
Turning to `CC(=O)N(C(=O)c1cc(-c2cnn(-c3c(Cl)cc(C(F)(C(F)(F)F)C(F)(F)F)cc3Cl)c2)cnc1Cl)C1(C#N)CC1` [Compound 108], the mortality at 1.25 µg/mL in the assay on Mythimna separata is not below 90%; in the assay with Plutella xylostella (setting [3]), 100%; in the assay with Plutella xylostella (setting [1]), not below 90%; with Tetranychus cinnabarinus it was not below 90%. For the same compound, in the assay on Plutella xylostella (setting [2]), the mortality at 0.3125 µg/mL was determined as 100%. The mortality at 0.625 µg/mL with Plutella xylostella (setting [2]) is 100%. For the same compound, the mortality at 1 µg/cm2 in the assay with Ctenocephalides felis and with Dermacentor variabilis was not below 70% throughout.
As for `CC(=O)N(C(=O)c1cc(-c2cnn(-c3c(Cl)cc(C(F)(C(F)(F)F)C(F)(F)F)cc3Cl)c2)cnc1Cl)C1CC1` [Compound 99], the mortality at 1.25 µg/mL with Mythimna separata was not below 90%; with Plutella xylostella (setting [3]) it was 100%; with Plutella xylostella (setting [1]), not below 90%; in the assay on Tetranychus cinnabarinus, not below 90%. Moreover, in the assay with Plutella xylostella (setting [2]), the mortality at 0.3125 µg/mL was 100%. Further, the mortality at 0.625 µg/mL in the assay on Plutella xylostella (setting [2]) is 100%. Besides, the mortality at 1 µg/cm2 in the assay with Ctenocephalides felis and in the assay with Dermacentor variabilis was not below 70% in each case.
Regarding `N#CCCN(C(=O)c1cc(-c2cnn(-c3c(Cl)cc(C(F)(C(F)(F)F)C(F)(F)F)cc3Cl)c2)cnc1Cl)C1(C#N)CC1` [Compound 12], the mortality at 1.25 µg/mL is not below 90% in the assay with Mythimna separata, 100% with Plutella xylostella (setting [3]), not below 90% with Plutella xylostella (setting [1]) and not below 90% in the assay on Tetranychus cinnabarinus. For the same compound, in the assay with Plutella xylostella (setting [2]), the mortality at 0.3125 µg/mL stood at 100%. For the same compound, the mortality at 0.625 µg/mL in the assay with Plutella xylostella (setting [2]) amounted to 100%. Also, the mortality at 1 µg/cm2 in the assay on Ctenocephalides felis and in the assay with Dermacentor variabilis was not below 70% each time.
Take `CC(C)C(=O)N(C(=O)c1cc(-c2cnn(-c3c(Cl)cc(C(F)(C(F)(F)F)C(F)(F)F)cc3Cl)c2)cnc1Cl)C1CC1` [Compound 102]: the mortality at 1.25 µg/mL in the assay with Mythimna separata, in the assay on Plutella xylostella (setting [1]) and in the assay on Tetranychus cinnabarinus was not below 90% in each case. In addition, the mortality at 1 µg/cm2 in the assay on Ctenocephalides felis and in the assay on Dermacentor variabilis was not below 70% in each case.
Take `N#CCCN(C(=O)c1cc(-c2cnn(-c3c(Cl)cc(C(F)(C(F)(F)F)C(F)(F)F)cc3Br)c2)cnc1Cl)C1CC1` [Compound 33]: the mortality at 1.25 µg/mL in the assay with Mythimna separata, with Plutella xylostella (setting [1]) and in the assay with Tetranychus cinnabarinus was not below 90% throughout. For the same compound, the mortality at 1 µg/cm2 in the assay on Ctenocephalides felis and with Dermacentor variabilis was not below 70% throughout.
Turning to `O=C(c1cc(-c2cnn(-c3c(Cl)cc(C(F)(C(F)(F)F)C(F)(F)F)cc3Cl)c2)cnc1Cl)N(CC1CC1)C1CC1` [Compound 3], the mortality at 1.25 µg/mL in the assay on Mythimna separata was not below 90%; in the assay with Plutella xylostella (setting [3]), 100%; in the assay with Plutella xylostella (setting [1]), not below 90%; in the assay with Tetranychus cinnabarinus it was not below 90%. The mortality at 0.3125 µg/mL in the assay with Plutella xylostella (setting [2]) was 76.7%. The mortality at 0.625 µg/mL in the assay on Plutella xylostella (setting [2]) is 100%. The mortality at 1 µg/cm2 with Ctenocephalides felis and with Dermacentor variabilis was not below 70% throughout.
With `O=C(c1cc(-c2cnn(-c3c(Cl)cc(C(F)(C(F)(F)F)C(F)(F)F)cc3Cl)c2)cnc1Cl)N(C(=O)C1CC1)C1CC1` [Compound 104], the mortality at 1.25 µg/mL was not below 90% with Mythimna separata, 100% in the assay on Plutella xylostella (setting [3]), not below 90% with Plutella xylostella (setting [1]) and not below 90% with Tetranychus cinnabarinus. Moreover, the mortality at 0.3125 µg/mL in the assay on Plutella xylostella (setting [2]) worked out at 100%. Moreover, the mortality at 0.625 µg/mL with Plutella xylostella (setting [2]) amounted to 100%. Besides, the mortality at 1 µg/cm2 in the assay with Ctenocephalides felis and in the assay with Dermacentor variabilis was not below 70% each time.
